The source of these data is US12552833B2, “Dynamics within supramolecuar IKVAV matrices enhance functional maturation of human IPSCS-derived neurons and regeneration” (Northwestern University, priority 2019, dated 2026).

In assay [1] the test system is human MNs. The assay is described as follows: Patch-electrode recording of action potentials from human MNs grown on A2G2 and laminin matrices. In kind it is cell-based. Conditions: MNs grown on A2G2 compared with laminin matrices, day 48-49 (FIG. 4L). Here is the method: Motor neurons (MN) differentiation: At 70% confluency, iPSC cultures were dissociated using Accutase and plated at a density of 10^5 cells/cm^2 with 10 μM ROCK inhibitor (Y-27632, DNSK International) in mTeSR1. Next day (day 0), media was replaced with N2B27 medium (50% DMEM:F12, 50% Neurobasal, supplemented with NEAA, Glutamax, N2 and B27; Gibco, Life Technologies) containing 10 μM SB431542 (DNSK International), 100 nM LDN-193189 (DNSK International), 1 μM Retinoic Acid (RA, Sigma) and 1 μM of Smoothened-Agonist (SAG, DNSK International). Culture medium was daily changed until day 6, then was switched to N2B27 medium supplemented with 1 μM RA, 1 μM SAG, 5 μM DAPT (DNSK International) and 4 μM SU5402 (DNSK International). Cells were fed daily until day 14, when MNs were dissociated using TrypLE Express (Gibco, Life Technologies) supplemented with DNase I (Worthington) and plated onto pre-coated poly-D-Lysine/laminin or the distinct IKVAV-coated surfaces. MNs were feed 3 times a week with neurobasal medium (NBM: NEAA, Glutamax, N2 and B27) supplemented with Ascorbic acid (0.2 μg/ml; Sigma-Aldrich), BDNF, CNTF and GDNF (10 ng/mL, R&D systems) and 1% fetal bovine serum (FBS).

Assay [2] concerns human MNs. The assay is described as follows: Tandem mass spectrometry and gene ontology (GO) analysis of proteins differentially expressed in MNs cultured on A2G2 IKVAV PA vs. laminin coated surfaces. In kind it is cell-based. The following applies: A2G2 condition vs. laminin; 21 out of the 58 GO terms of Ho et al., 2016 (FIG. 31A). An excerpt: FIGS. 31A-31C Assessment of MN maturation through gene ontology (GO) analysis of proteins differentially expressed in MNs cultured on A2G2 IKVAV PA and laminin coated surfaces. Tandem mass spectrometry analysis uncovered differentially expressed proteins between MNs plated on […] surfaces, that are associated with GO terms that have been directly linked to human MN maturation (Ho et al., 2016). (FIG. 31A) From the differentially expressed proteins in A2G2 condition, 21 out of the 58 (36%) GO terms associated with maturation of human MNs were identified. […] Horizontal bar plots display the p-values of the MN maturation related GO terms identified in the protein data set. Pie charts represent the percentage of GO terms obtained in this study compared to the previously described GO terms associated with MN maturation (Ho et al., 2016).
Motor neurons (MN) differentiation: At 70% confluency, iPSC cultures were dissociated using Accutase and plated at a density of 10^5 cells/cm^2 with 10 μM ROCK inhibitor (Y-27632, DNSK International) in mTeSR1. Next day (day 0), media was replaced with N2B27 medium (50% DMEM:F12, 50% Neurobasal, supplemented with NEAA, Glutamax, N2 and B27; Gibco, Life Technologies) containing 10 μM SB431542 (DNSK International), 100 nM LDN-193189 (DNSK International), 1 μM Retinoic Acid (RA, Sigma) and 1 μM of Smoothened-Agonist (SAG, DNSK International). […]

No end group written: not given here. *: point of attachment. Palmitoyl = CCCCCCCCCCCCCCCC(=O)*

For the substance “C16A2G2E4GIKVAV (Palmitoyl-AAGGEEEEGIKVAV) [IKVAV peptide amphiphile with A2G2 structural segment]”, in assay [1], the action potential amplitude entry was “significantly larger amplitude”; the “action potential rates of rise and fall” value was “faster rates of rise and fall”. The “GO terms associated with maturation of human MNs identified from the differentially expressed proteins” value in assay [2] stood at 36%.
